≈ marks a conversion by molar mass, not a printed value.

Assay [1] relates to OVCAR-8 ovarian cancer cell line. Briefly: Human cultured cancer cell panel screening test, OVCAR-8. In kind it is cell-based. The procedure:
(§1) To examine the cytostatic activity of TD-1, a human cultured cancer cell panel screening test was carried out. Specifically, for TD-1, the human cultured cancer cell panel screening test was carried out by measuring 50% cell growth inhibitory concentration (GI50) against 39 types in total of human tumor cells according to the method described in “Gan To Kagaku Ryoho (Cancer and Chemotherapy) (Takao Yamori), 24, 129-135, 1997”.

Assay [2] relates to DU-145 prostatic cancer cell line. The assay is described as follows: Human cultured cancer cell panel screening test, DU-145. Type of assay: cell-based. The protocol: as §1
The subject of assay [3] is PC-3 prostatic cancer cell line. The assay is described as follows: Human cultured cancer cell panel screening test, PC-3. In kind it is cell-based. The procedure:
as §1

Assay [4] concerns OVCAR-4 ovarian cancer cell line. Briefly: Human cultured cancer cell panel screening test, OVCAR-4. In kind it is cell-based. The protocol:
as §1

The test system of assay [5] is human acute myeloid leukemia cell strain HL-60. Briefly: Cytotoxic activity, MTT test on HL-60 cells. Type of assay: cell-based. Particulars: 72 hr incubation; for IC50: Homo sapiens. The protocol:
Cytostatic activity of TD-1 to 10 was studied in terms of numerical values of cytotoxic activity using human acute myeloid leukemia cell strain HL-60. The test was specifically carried out according to the following procedure.
HL-60 cells precultured in an FBS-containing RPMI 1640 medium were suspended in an FBS-containing RPMI 1640 medium so that the number of HL-60 cells is 4×10^4 per mL. The suspension was dispensed in an amount of […] for each well in a 96-well microplate, followed by preincubation in 5% carbon dioxide gas at 37° C. for 24 hr. Subsequently, EtOH-H2O(1:1) as control, and a solution of each TD compound in EtOH-H2O(1:1) as a sample were added each in an amount of […] to each well. After incubation in 5% carbon dioxide gas at 37° C. for 72 hr, an MTT reagent was added in an amount of […] to each well, and incubation was further carried out for 4 hr. The medium was removed, and MTT formazan thus produced was then dissolved in […] of DMSO. Detection was carried out at a light absorption wavelength of 550 nm with a microplate reader, and the viable cell count based on the control was calculated. IC50 values were calculated from a dose-response curve.
For orientation: Tetrazolium dyes change colour on reduction, which living cells bring about.

Assay [6] has as its system OVCAR-5 ovarian cancer cell line. The assay is described as follows: Human cultured cancer cell panel screening test, OVCAR-5. In kind it is cell-based. The protocol:
as §1

Assay [7] deals with 39 types in total of human tumor cells. The assay is described as follows: Human cultured cancer cell panel screening test, average over panel. Type of assay: cell-based. The conditions noted are these: 50% cell growth inhibitory concentration, average over 39 human tumor cell types. The procedure: as §1
Assay [8] concerns SK-OV-3 ovarian cancer cell line. The assay is described as follows: Human cultured cancer cell panel screening test, SK-OV-3. In kind it is cell-based. The protocol:
as §1

The subject of assay [9] is OVCAR-3 ovarian cancer cell line. Briefly: Human cultured cancer cell panel screening test, OVCAR-3. Type of assay: cell-based. The procedure:
as §1

The test system of assay [10] is P388 mouse leukemia. The conditions noted are these: mice with P388 mouse leukemia intraperitoneally transplanted; Pal et al. 1976; cited from earlier work.

What is called GI50 is the concentration at which growth is held to half of that of the control. With `C=C1C(=O)O[C@@H]2C=C(C)[C@@]3(OC)C[C@@H](OC)[C@@](C)(C[C@@H](OC(=O)C(C)C)[C@@H]12)O3` [TD-1, (1R,3R,6R,7R,8R,10R)-1,3-dimethoxy-3,10-epoxy-8-isobutyryloxygermacra-4,11(13)-dien-6,12-olide], the 50% growth inhibitory concentration (GI50) in assay [1] stood at 3.6 µM; in [2], 4.2 µM; in assay [3], 3.3 µM; in assay [4] it was 5.6 µM; in assay [6], 2900 nM; in assay [7], 6.8 µM. The GI50 in [8] turned out to be 4 µM; in assay [9], 3.3 µM. Moreover, the IC50 value entry in [5] was “(0.60) μg/mL”. For orientation: IC50 means the concentration needed to halve the response being measured. Low readings indicate greater potency in that assay, high ones weaker potency in that assay. Consider `C=C1C(=O)OC2/C=C(/C)C(=O)/C=C/C(C)(O)CC(OC(=O)C(C)C)C12` [TD-2, (6S,7R,8R,10R)-10-hydroxy-3-oxo-8-isobutyryloxygermacra-1,4,11(13)-trien-6,12-olide], for which the IC50 in assay [5] turned out to be 0.38 µg/mL (≈ 1.09 µM). As to `C=C1C(=O)O[C@@H]2C[C@H](C)[C@@]3(OC)C[C@H](O)[C@@](C)(C[C@@H](OC(=O)C(C)C)[C@@H]12)O3` [TD-3, (1S,3R,4S,6R,7S,8R,10R)-1-hydroxy-3-methoxy-3,10-epoxy-8-isobutyryloxygermacra-11(13)-en-6,12-olide], in [5], the IC50 value entry is recorded as “(4.97) μg/mL”. `C=C1C(=O)O[C@@H]2C=C(C)[C@@]3(O)C[C@@H](OC)[C@@](C)(C[C@@H](OC(=O)C(C)C)[C@@H]12)O3` [TD-4, (1R,3R,6R,7R,8R,10R)-3-hydroxy-1-methoxy-3,10-epoxy-8-isobutyryloxygermacra-4,11(13)-dien-6,12-olide]: in assay [5], the IC50 value result is listed as “(0.05) μg/mL”. In the case of `C=C1C(=O)O[C@@H]2C=C(C)[C@@]3(OC)C[C@H](O)[C@@](C)(C[C@@H](OC(=O)C(C)C)[C@@H]12)O3` [TD-6, (1 S,3R,6R,7R, 8R,10R)-1-hydroxy-3-methoxy-3,10-epoxy-8-isobutyryloxygermacra-4,11(13)-dien-6,12-olide], the IC50 value result in assay [5] is “(2.50) μg/mL”. Regarding `C=C1C(=O)O[C@@H]2C[C@H](C)[C@@]3(O)C[C@H](O)[C@@](C)(C[C@@H](OC(=O)C(C)C)[C@@H]12)O3` [TD-7, (1S,3R,4S,6R,7S,8R,10R)-1,3-dihydroxy-3,10-epoxy-8-isobutyryloxygermacra-11(13)-en-6,12-olide], the IC50 value entry in assay [5] is recorded as “(3.87) μg/mL”. Turning to `C=C1C(=O)OC2/C=C(/C)C(O)CC3OC3(C)CC(OC(=O)C(C)C)C12` [TD-8, (1R,3S,6S,7R,8R,10R)-3-hydroxy-1,10-epoxy-8-isobutyrylgermacra-4,11(13)-dien-6,12-olide], in [5], half-maximal inhibition (IC50) required 0.92 µg/mL (≈ 2.63 µM). Turning to `C=C1C(=O)O[C@@H]2C[C@H](C)[C@@]3(O)CC[C@@](C)(C[C@@H](OC(=O)C(C)C)[C@@H]12)O3` [TD-9, (3R,4S,6R,7S,8R,10S)-3-hydroxy-3,10-epoxy-8-isobutyryloxygermacra-11 (13)-en-6,12-olide], the IC50 value entry in assay [5] is “(2.50) μg/mL”. `C=C1C(=O)O[C@@H]2C[C@H](C)[C@@]3(OC)CC[C@@](C)(C[C@@H](OC(=O)C(C)C)[C@@H]12)O3` [TD-10, (3R,4S,6R,7S,8R,10S)-3-methoxy-3,10-epoxy-8-isobutyryloxygermacra-11(13)-en-6,12-olide]: the IC50 value result in [5] is on record as “(0.78) μg/mL”. On to `C=C1C(=O)O[C@H]2/C=C(/C)[C@@]3(O)C=C[C@@](C)(C[C@@H](OC(=O)C(C)C)[C@@H]12)O3` [TD-11, (3R,6R,7R,8R,10R)-3-hydroxy-3,10-epoxy-8-isobutyryloxygermacra-1,4,11(13)-trien-6,12-olide], for which the “effect of prolonging the life span of mice” value in assay [10] is recorded as “had the effect of prolonging the life span of mice”.

The values above are taken from US7563913B2, “Compound and pharmaceutical composition” (Hiro International Co., Ltd., priority 2003, dated 2009).
